≈ marks a conversion by molar mass, not a printed value.
Key:
LPA2 receptor = target: T1, LPA2 receptor (Homo sapiens, UniProt Q9HBW0); test: Off-target screen LPA2 receptor, agonist mode; format: cell-based; settings: 10 µM, single point, duplicates
T1 construct: purchased Eurofins CEREP SA

[1] = test system: Ca2^+ channel (diltiazem site); test: Off-target screen Ca2+ channel (diltiazem site); settings: 10 µM; single point, duplicates
[2] = Glutathione addition screening; format: in vitro ADME; settings: human liver microsomes + NADPH + GSH
Experimental: All sample handling was performed based on a 96-well plate format using an automated pipetting system. The test compounds, positive controls (diclofenac, troglitazone, nefazodone, 4-[[1-(4-fluorophenyl)-2-methyl-1H-imidazol-4-yl]ethynyl]-2-methylpyridine) and solvent control (DMSO) were incubated with human liver microsomes supplemented with NADPH and reduced GSH. Stable GSH conjugates whose production can be assumed to be the result of chemically reactive metabolites were detected using a quadrupole time of flight mass spectrometer run in untargeted full scan accurate mass MSE mode (Waters Xevo G1 QTOFMSE; Waters GmbH, Eschborn, Germany). This generic GSH adduct detection method and the assay workflow are taking advantage of the specific fragmentation behavior of the peptide moiety upon collision induced dissociation of GSH adducts and so are largely independent of the conjugate (“X”) itself.

Muscarininc receptor M4 = target: T2, Muscarininc receptor M4 (Homo sapiens, UniProt P08173); test: Off-target screen Muscarinic M4; format: binding; settings: 10 µM; single point, duplicates
T2 construct: purchased Eurofins CEREP SA

[3] = target: T3, Norepinephrine transporter (Homo sapiens, UniProt P23975); test: Off-target screen Norepinephrine transporter; format: binding; settings: 10 µM; single point, duplicates
T3 construct: purchased Eurofins CEREP SA

HT-solubility assay = format: physicochemical; settings: aqueous buffer, thermodynamic from solid; phosphate buffer pH 6.5
Experimental: This assay was performed on a TECAN station starting from 10 mM DMSO stock solutions of the test compounds. Two aliquots of the test compound were dried and dissolved in phosphate buffer at pH 6.5. Sonication supports optimal re-solubilization. The solutions were then filtered and diluted (3 different dilution levels for each compound) followed by quantification of the dissolved material with Rapid-Fire MS. Quantification was performed for each test compound with a 6-point calibration curve prepared with the same DMSO starting solution.

Alpha2A-adrenoreceptor = target: T4, Alpha2A-adrenoreceptor (Homo sapiens, UniProt P08913); test: Off-target screen Alpha2A-adrenoreceptor; format: binding; settings: 10 µM; single point, duplicates
T4 construct: purchased Eurofins CEREP SA

PCP receptor = test: Off-target screen PCP receptor; settings: 10 µM; single point, duplicates
MMP-3 = target: T5, MMP-3 (Homo sapiens, UniProt P08254); test: Off-target screen MMP-3; format: biochemical; settings: 10 µM; single point, duplicates
T5 construct: purchased Eurofins CEREP SA

Glucocorticoid receptor = target: T6, Glucocorticoid receptor (Homo sapiens, UniProt P04150); test: Off-target screen Glucocorticoid receptor; format: binding; settings: 10 µM; single point, duplicates
T6 construct: purchased Eurofins CEREP SA

S1P2 = target: T7, S1P2 (Homo sapiens, UniProt O95136); test: Off-target screen S1P2, agonist mode; format: cell-based; settings: 10 µM, single point, duplicates
T7 construct: purchased Eurofins CEREP SA

S1P1 [4] = target: T8, S1P1 (Homo sapiens, UniProt P21453); test: Off-target screen S1P1, agonist mode; format: cell-based; settings: 10 µM, single point, duplicates
T8 construct: purchased Eurofins CEREP SA

[5] = target: T9, Angiotensin II receptor 1 (Homo sapiens, UniProt P30556); test: Off-target screen Angiotensin II receptor 1; format: binding; settings: 10 µM; single point, duplicates
T9 construct: purchased Eurofins CEREP SA

MMP-9 = target: T10, MMP-9 (Homo sapiens, UniProt P14780); test: Off-target screen MMP-9; format: biochemical; settings: 10 µM; single point, duplicates
T10 construct: purchased Eurofins CEREP SA

Sodium channel (site 2) = test: Off-target screen Sodium channel (site 2); settings: 10 µM; single point, duplicates
ML3R = test: Off-target screen ML3R; settings: 10 µM; single point, duplicates
5HT2a = target: T11, 5HT2a (Homo sapiens, UniProt P28223); test: Off-target screen 5HT2a; format: binding; settings: 10 µM; single point, duplicates
T11 construct: purchased Eurofins CEREP SA

Prostaglandin F receptor = target: T12, Prostaglandin F receptor (Homo sapiens, UniProt P43088); test: Off-target screen Prostaglandin F receptor; format: binding; settings: 10 µM; single point, duplicates
T12 construct: purchased Eurofins CEREP SA

S1P3 = target: T13, S1P3 (Homo sapiens, UniProt Q99500); test: Off-target screen S1P3, antagonist mode; format: cell-based; settings: 10 µM, single point, duplicates
T13 construct: purchased Eurofins CEREP SA

Histamine H2 receptor = target: T14, Histamine H2 receptor (Homo sapiens, UniProt P25021); test: Off-target screen Histamine H2; format: binding; settings: 10 µM; single point, duplicates
T14 construct: purchased Eurofins CEREP SA

ACE = target: T15, ACE (Homo sapiens, UniProt P12821); test: Off-target screen ACE; format: biochemical; settings: 10 µM; single point, duplicates
T15 construct: purchased Eurofins CEREP SA

HDAC4 = target: T16, HDAC4 (Homo sapiens, UniProt P56524); test: Off-target screen HDAC4; format: biochemical; settings: 10 µM; single point, duplicates
T16 construct: purchased Eurofins CEREP SA

[6] = target: T17, Neprilysin (neutral endopeptidase) (Homo sapiens, UniProt P08473); test: Off-target screen Neprilysin; format: biochemical; settings: 10 µM; single point, duplicates
T17 construct: purchased Eurofins CEREP SA

Dopamine D1 receptor = target: T18, Dopamine D1 receptor (Homo sapiens, UniProt P21728); test: Off-target screen Dopamine D1; format: binding; settings: 10 µM; single point, duplicates
T18 construct: purchased Eurofins CEREP SA

[7] = In vitro microsomal stability, human; format: in vitro ADME; settings: human microsomes, 1 µM; value of 10 = low clearance, essentially below detection limit
Experimental: (§1) Incubations of a test compound at a concentration of 1 µM with microsomes (0.5 mg/ml) from the appropriate species (human, mouse, or rat) plus cofactor NADPH were performed in 96-well plates at 37°C on a TECAN automated liquid handling system (Tecan Group Ltd., Männedorf, Switzerland). After pre-incubation of the test compound with the microsomes for 10 min, the enzymatic reaction was started by the addition of cofactors. Aliquots of the incubations are removed at 1, 3, 6, 9, 15, 25, 35, and 45 min and are then quenched with 1:3 (v/v) acetonitrile containing internal standards. Samples were then cooled and centrifuged before analysis of the supernatant by LC-MS/MS. Logarithmic Peak area ratios (test compound peak area/internal standard peak area) were plotted against incubation time and a linear fit made to the data with emphasis upon the initial rate of compound disappearance. The slope of the fit was then used to calculate the intrinsic clearance: Clint (µL/min/mg protein) = −slope (min-1) * 1,000/[protein concentration (mg/ml)].

5HT1A = target: T19, 5HT1A (Homo sapiens, UniProt P08908); test: Off-target screen 5HT1A; format: binding; settings: 10 µM; single point, duplicates
T19 construct: purchased Eurofins CEREP SA

kappa opioid receptor = target: T20, kappa opioid receptor (Rattus norvegicus, UniProt P34975); test: Off-target screen kappa opioid receptor; format: binding; settings: 10 µM; single point, duplicates
T20 construct: purchased Eurofins CEREP SA

Adenosine A3 respetor = target: T21, Adenosine A3 respetor (Homo sapiens, UniProt P0DMS8); test: Off-target screen Adenosine A3; format: binding; settings: 10 µM; single point, duplicates
T21 construct: purchased Eurofins CEREP SA

MAO-B = target: T22, MAO-B (Homo sapiens, UniProt P27338); test: Off-target screen MAO-B; format: biochemical; settings: 10 µM; single point, duplicates
T22 construct: purchased Eurofins CEREP SA

S1P1 [8] = target: T8, S1P1; test: Off-target screen S1P1, antagonist mode; format: cell-based; settings: 10 µM, single point, duplicates
Histamine H3 receptor = target: T23, Histamine H3 receptor (Homo sapiens, UniProt Q9Y5N1); test: Off-target screen Histamine H3; format: binding; settings: 10 µM; single point, duplicates
T23 construct: purchased Eurofins CEREP SA

[9] = In vitro microsomal stability, rat; format: in vitro ADME; settings: rat microsomes, 1 µM; value of 10 = low clearance, essentially below detection limit
Experimental: as §1

T8 sequence (P21453 whole entry): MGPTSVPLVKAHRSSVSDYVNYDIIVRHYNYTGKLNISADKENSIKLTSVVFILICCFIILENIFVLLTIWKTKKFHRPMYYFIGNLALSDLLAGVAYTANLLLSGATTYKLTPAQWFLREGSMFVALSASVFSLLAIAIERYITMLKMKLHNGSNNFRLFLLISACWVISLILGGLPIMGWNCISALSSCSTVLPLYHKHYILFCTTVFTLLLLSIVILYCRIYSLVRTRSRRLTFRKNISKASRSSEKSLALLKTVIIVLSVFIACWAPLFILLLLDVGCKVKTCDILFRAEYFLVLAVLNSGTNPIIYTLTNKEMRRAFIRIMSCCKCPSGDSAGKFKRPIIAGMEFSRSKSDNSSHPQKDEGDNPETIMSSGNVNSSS
T18 sequence (P21728 whole entry): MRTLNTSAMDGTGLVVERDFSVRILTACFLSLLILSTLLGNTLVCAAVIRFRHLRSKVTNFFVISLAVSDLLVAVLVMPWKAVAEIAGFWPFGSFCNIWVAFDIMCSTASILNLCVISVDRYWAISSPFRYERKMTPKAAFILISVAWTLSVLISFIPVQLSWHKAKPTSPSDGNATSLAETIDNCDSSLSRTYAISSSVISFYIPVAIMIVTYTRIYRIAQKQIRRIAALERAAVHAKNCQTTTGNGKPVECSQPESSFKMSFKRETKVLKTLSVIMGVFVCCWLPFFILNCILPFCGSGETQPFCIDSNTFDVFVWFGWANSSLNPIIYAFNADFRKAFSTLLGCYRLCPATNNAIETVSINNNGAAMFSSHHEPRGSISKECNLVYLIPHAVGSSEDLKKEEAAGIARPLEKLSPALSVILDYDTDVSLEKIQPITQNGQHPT
T23 sequence (Q9Y5N1 whole entry): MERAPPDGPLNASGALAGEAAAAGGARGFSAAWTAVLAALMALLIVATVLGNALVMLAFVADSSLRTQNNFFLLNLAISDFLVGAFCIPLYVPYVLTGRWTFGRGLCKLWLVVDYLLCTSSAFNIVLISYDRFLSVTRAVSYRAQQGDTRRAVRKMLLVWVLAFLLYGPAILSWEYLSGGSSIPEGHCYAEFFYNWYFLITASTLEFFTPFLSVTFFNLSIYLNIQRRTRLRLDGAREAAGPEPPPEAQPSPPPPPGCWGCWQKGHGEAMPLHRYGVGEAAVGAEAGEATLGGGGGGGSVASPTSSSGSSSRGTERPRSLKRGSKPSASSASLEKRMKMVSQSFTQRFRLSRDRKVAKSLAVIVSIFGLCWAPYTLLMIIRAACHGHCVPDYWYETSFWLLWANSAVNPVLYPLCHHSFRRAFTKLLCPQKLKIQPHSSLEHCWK
T11 sequence (P28223 whole entry): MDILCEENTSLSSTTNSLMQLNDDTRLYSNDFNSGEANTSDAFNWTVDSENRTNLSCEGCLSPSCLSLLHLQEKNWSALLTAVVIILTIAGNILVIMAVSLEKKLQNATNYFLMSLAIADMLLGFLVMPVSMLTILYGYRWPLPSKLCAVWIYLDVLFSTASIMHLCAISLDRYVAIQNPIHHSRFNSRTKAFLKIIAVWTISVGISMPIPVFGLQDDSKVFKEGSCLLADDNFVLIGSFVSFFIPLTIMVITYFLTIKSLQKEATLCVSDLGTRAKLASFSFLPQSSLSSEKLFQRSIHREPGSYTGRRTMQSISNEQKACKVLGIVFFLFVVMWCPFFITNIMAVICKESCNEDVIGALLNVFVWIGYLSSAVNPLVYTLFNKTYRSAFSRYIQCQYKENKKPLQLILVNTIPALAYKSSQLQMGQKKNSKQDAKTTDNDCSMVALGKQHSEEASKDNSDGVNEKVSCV
T17 sequence (P08473 whole entry): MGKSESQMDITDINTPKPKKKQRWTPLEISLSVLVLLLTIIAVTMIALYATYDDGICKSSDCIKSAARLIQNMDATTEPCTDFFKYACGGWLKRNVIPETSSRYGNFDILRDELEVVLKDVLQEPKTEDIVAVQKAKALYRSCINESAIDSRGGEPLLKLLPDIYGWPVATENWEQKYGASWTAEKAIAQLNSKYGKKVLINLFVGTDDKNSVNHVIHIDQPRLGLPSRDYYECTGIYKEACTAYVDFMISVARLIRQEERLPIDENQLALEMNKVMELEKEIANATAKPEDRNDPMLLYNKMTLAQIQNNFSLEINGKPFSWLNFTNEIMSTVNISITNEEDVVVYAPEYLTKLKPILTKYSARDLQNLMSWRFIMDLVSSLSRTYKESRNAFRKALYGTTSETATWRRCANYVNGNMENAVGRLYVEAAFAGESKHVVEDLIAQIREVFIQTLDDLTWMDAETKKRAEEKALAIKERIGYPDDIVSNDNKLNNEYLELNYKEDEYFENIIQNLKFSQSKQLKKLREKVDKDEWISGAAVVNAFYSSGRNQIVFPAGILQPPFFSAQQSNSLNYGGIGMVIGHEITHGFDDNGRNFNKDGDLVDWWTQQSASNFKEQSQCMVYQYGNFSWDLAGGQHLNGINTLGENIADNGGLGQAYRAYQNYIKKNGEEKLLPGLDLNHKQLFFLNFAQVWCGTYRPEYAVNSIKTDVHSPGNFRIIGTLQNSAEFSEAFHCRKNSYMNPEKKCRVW
T2 sequence (P08173 whole entry): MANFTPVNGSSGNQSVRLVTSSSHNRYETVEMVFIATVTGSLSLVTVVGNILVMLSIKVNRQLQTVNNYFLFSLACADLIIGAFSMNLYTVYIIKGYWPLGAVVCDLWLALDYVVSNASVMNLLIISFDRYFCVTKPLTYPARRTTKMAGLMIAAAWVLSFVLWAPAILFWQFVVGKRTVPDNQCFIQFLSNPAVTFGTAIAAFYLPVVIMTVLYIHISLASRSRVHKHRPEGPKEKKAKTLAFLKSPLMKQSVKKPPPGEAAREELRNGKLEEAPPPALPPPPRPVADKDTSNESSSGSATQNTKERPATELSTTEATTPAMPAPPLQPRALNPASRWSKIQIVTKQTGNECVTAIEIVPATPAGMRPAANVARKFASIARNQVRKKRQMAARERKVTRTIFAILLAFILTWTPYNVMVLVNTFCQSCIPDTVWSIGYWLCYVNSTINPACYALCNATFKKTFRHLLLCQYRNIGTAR
T20 sequence (P34975 whole entry): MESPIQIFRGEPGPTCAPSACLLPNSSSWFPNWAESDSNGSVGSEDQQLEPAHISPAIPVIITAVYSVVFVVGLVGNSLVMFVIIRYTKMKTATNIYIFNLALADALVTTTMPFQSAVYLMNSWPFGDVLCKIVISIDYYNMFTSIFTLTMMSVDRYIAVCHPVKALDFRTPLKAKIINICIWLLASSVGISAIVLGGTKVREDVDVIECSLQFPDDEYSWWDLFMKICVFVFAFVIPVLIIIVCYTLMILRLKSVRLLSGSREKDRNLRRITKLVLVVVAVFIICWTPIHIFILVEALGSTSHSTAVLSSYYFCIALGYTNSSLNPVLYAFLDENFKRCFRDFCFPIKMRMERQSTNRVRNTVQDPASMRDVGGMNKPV
T13 sequence (Q99500 whole entry): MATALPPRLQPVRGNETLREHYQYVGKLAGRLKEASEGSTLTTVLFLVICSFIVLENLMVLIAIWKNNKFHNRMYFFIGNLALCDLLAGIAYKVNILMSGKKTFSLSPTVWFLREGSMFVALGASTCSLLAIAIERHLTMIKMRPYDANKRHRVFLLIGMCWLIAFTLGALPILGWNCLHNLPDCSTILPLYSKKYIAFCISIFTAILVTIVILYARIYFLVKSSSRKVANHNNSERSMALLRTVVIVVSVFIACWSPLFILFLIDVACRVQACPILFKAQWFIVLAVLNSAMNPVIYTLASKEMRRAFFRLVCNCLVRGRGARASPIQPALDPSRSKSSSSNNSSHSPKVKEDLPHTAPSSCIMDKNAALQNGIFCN
T22 sequence (P27338 whole entry): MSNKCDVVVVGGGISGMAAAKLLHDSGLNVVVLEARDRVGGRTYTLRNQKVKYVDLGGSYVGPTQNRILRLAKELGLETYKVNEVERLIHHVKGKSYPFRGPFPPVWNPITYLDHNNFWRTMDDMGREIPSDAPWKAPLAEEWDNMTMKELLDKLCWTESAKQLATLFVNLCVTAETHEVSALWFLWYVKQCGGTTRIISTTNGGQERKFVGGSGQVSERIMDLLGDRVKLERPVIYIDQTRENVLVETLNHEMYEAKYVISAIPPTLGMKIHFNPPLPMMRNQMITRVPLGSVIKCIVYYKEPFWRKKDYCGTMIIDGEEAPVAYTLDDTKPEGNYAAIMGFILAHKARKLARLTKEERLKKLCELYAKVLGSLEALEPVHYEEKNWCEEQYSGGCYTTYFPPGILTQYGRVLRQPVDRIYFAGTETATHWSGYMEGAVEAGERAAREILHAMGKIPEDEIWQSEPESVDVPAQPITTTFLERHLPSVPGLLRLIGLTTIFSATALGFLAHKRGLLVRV
T14 sequence (P25021 whole entry): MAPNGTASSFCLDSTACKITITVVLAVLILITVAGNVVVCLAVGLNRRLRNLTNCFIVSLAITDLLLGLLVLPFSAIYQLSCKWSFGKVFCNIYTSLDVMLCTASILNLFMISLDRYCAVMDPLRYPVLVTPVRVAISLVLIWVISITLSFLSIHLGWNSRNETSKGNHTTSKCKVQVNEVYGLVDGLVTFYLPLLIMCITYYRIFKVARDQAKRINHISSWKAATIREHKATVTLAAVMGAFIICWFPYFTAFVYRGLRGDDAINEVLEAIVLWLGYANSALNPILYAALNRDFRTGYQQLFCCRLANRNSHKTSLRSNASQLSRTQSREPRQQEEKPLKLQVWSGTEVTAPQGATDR
T7 sequence (O95136 whole entry): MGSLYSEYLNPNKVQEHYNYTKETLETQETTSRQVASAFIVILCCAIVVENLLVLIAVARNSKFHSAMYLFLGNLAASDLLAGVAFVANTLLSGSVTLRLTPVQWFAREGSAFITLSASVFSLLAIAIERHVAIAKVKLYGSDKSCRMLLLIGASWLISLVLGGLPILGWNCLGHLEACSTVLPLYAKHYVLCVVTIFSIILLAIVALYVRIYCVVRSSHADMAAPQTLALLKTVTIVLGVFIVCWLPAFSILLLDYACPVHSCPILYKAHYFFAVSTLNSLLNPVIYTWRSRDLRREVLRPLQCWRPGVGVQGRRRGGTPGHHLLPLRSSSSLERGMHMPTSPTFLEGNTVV

Q: For `O=C(OCc1ccc(OC(F)(F)F)cc1)N1C[C@@H]2CN(C(=O)c3ccc4[nH]nnc4c3)C[C@H]2C1` [Compound 13, (3aS,6aS)-5-(1H-Benzotriazole-5-carbonyl)-hexahydro-pyrrolo[3,4-c]pyrrole-2-carboxylic acid 4-trifluoromethoxy-benzyl ester], which “LPA2 receptor (h), agonist mode [% pos ctrl]” value (LPA2 receptor) is on record?
A: 8 % pos ctrl

Q: What about the “Ca2^+ channel (diltiazem site) (r) [% inhib]” value [1] of the same compound?
A: 9 % inhib

Q: And the GSH adducts [2]?
A: Neg

Q: What about the “Muscarininc receptor M4 (h) [% inhib]” value (Muscarininc receptor M4) of the same compound?
A: -17 % inhib

Q: And the “Norepinephrine transporter (h) [% inhib]” value [3]?
A: 20 % inhib

Q: And the solubility (HT-solubility assay)?
A: 28 µg/mL (≈ 58.9 µM)

Q: And the “Alpha2A-adrenoreceptor (h) [% inhib]” value (Alpha2A-adrenoreceptor)?
A: 3 % inhib

Q: And the “PCP receptor (r) [% inhib]” value (PCP receptor)?
A: -16 % inhib

Q: What about the “MMP-3 (h) [% inhib]” value (MMP-3) of the same compound?
A: 3 % inhib

Q: What about the “Glucocorticoid receptor (h) [% inhib]” value (Glucocorticoid receptor) of the same compound?
A: 6 % inhib

Q: And the “S1P2 (h), agonist mode [% pos ctrl]” value (S1P2)?
A: -2 % pos ctrl

Q: What about the “S1P1 (h), agonist mode [% pos ctrl]” value (S1P1 [4]) of the same compound?
A: 5 % pos ctrl

Q: What about the “Angiotensin II receptor 1 (h) [% inhib]” value [5] of the same compound?
A: 14 % inhib

Q: What about the “MMP-9 (h) [% inhib]” value (MMP-9) of the same compound?
A: -22 % inhib

Q: What about the “Sodium channel (site 2) (r) [% inhib]” value (Sodium channel (site 2)) of the same compound?
A: 49 % inhib

Q: And the “ML3R (h) [% inhib]” value (ML3R)?
A: 48 % inhib

Q: What about the “5HT2a (h) [% inhib]” value (5HT2a) of the same compound?
A: 39 % inhib

Q: What about the “Prostaglandin F receptor (h) [% inhib]” value (Prostaglandin F receptor) of the same compound?
A: 26 % inhib

Q: What about the “S1P3 (h), antago. mode [% inhib]” value (S1P3) of the same compound?
A: 47 % inhib

Q: What about the “Histamine H2 receptor (h) [% inhib]” value (Histamine H2 receptor) of the same compound?
A: 12 % inhib

Q: And the “ACE (h) [% inhib]” value (ACE)?
A: -25 % inhib

Q: And the “HDAC4 (h) [% inhib]” value (HDAC4)?
A: 3 % inhib

Q: And the “Neprilysin (neutral endopeptidase) (h) [% inhib]” value [6]?
A: -29 % inhib

Q: What about the “Dopamine D1 receptor (h) [% inhib]” value (Dopamine D1 receptor) of the same compound?
A: 0 % inhib

Q: What about the “Mic CL h” value [7] of the same compound?
A: 10/10/10 µL/m/mg prot

Q: And the “5HT1A (h) [% inhib]” value (5HT1A)?
A: -20 % inhib

Q: What about the “kappa opioid receptor (r) [% inhib]” value (kappa opioid receptor) of the same compound?
A: -1 % inhib

Q: And the “Adenosine A3 respetor (h) [% inhib]” value (Adenosine A3 respetor)?
A: 33 % inhib

Q: What about the “MAO-B (h) [% inhib]” value (MAO-B) of the same compound?
A: 6 % inhib

Q: And the “S1P1 (h), antago. mode [% inhib]” value (S1P1 [8])?
A: 8 % inhib

Q: And the “Histamine H3 receptor (h) [% inhib]” value (Histamine H3 receptor)?
A: -10 % inhib

Q: What about the “Mic CL r” value [9] of the same compound?
A: 10/10/10 µL/m/mg prot
